Results as given in patent publication US10927117B2 (BEIGENE SWITZERLAND GMBH, priority 2016, dated 2021).
Entries after “also recorded” stand apart in the source; their conditions may differ.

Key:
[1] = system: advanced B cell malignancies; assay: Phase 1 trial in patients with advanced B cell malignancies (cutoff Oct. 19, 2015); assay type: in vivo, human
Source text: A total of 39 patients, including all 25 patients from the initial dose-escalation component and 14 patients from the ongoing dose-expansion component were enrolled.
As of Oct. 19, 2015, the cutoff date for data analysis, 29 objective responses have been observed, including 3 complete responses (CRs), 1 very good partial response (VGPR), and 25 partial responses (PRs). 31 of the 39 patients remain on study treatment, free of progression, including all patients to date who have achieved an objective response.

[2] = Nonclinical toxicity studies in rats
Source text: (§1) These studies took account the available regulatory guidance for preclinical development of anticancer drugs.

[3] = Nonclinical toxicity studies in dogs
Source text: as §1

[4] = Metabolism in human liver microsomes (responsible CYP isoform)
[5] = Physical and long term stability test; assay type: physicochemical
Hygroscopic test (DVS) = assay type: physicochemical; settings: 80% RH, 25° C.
Protocol: The dynamic vapor sorption (DVS) plots shown as in FIG. 6 was collected a SMS (Surface Measurement Systems) DVS Intrinsic. The DVS parameters used includes: temperature (25° C.); dm/dt (0.002%/min); Min. dm/dt stability duration (10 min); Max. equilibrium time (180 min); RH range (0% RH to 95% RH); RH step size(10% RH from 0% RH to 90% RH, 5% RH from 90% RH to 95% RH).

TMD-8 DLBCL xenografts = assay: Efficacy study in TMD-8 xenograft model; assay type: in vivo, NOD/SCID mice
Protocol: Animals were pre-treated with cyclophosphamide (prepared in saline, 150 mg/kg i.p.) and disulfiram (prepared in 0.8% Tween 80 in saline, 125 mg/kg p.o., one hour after each dose of cyclophosphamide) once daily for two days Animals were then inoculated with TMD-8 cells 24 hours after the second dose of cyclophosphamide. On the day of implantation, cell culture medium was replaced with fresh medium. Four hours later, media was removed and cells were collected as described above. Cells were re-suspended in cold (4° C.) PBS and same volume of matrigel (BD, Cat #356237) was added to give a final concentration of 2.5×10^7 cells/ml. Resuspended cells were placed on ice prior to inoculation The right axilla region of each mouse was cleaned with 75% ethanol prior to cell inoculation. Each animal was injected subcutaneously with 5×10^6 cells in 200 μl of cell suspension in the right front flank via a 26-gauge needle.
For in vivo efficacy studies, starting from day 3 after cell inoculation, animals were randomly assigned into desired number of groups with 10 mice per group. […] Treatments were administered by oral gavage (p.o.) in a volume of 10 ml/kg body weight. Body weight was assessed immediately before dosing and volume dosed was adjusted accordingly. Tumor volume was measured twice weekly in two dimensions using a calliper (measureable from day 11 post inoculation in this study). Tumor volume was calculated using the formula: V=0.5×(a×b^2) where a and b are the long and short diameters of the tumor, respectively. Statistical analysis was conducted using the student T-test. P<0.05 was considered statistically significant. One individual was responsible for tumor measurement for the entire duration of the study. Body weights were also recorded twice weekly. Mice were also being monitored daily for clinical signs of toxicity for the duration of the study.

[6] = Burkitt's-like Lymphoma patients
[7] = Burkitt's-like Lymphoma patients, number of patients/total
[8] = Chronic Lymphocytic Leukemia patients
[9] = Chronic Lymphocytic Leukemia patients, number of patients/total
[10] = DLBCL patients, number of patients/total
[11] = Hairy Cell Leukemia patients, number of patients/total
[12] = Indolent NHL patients, number of patients/total
[13] = Mantle Cell Lymphoma patients, number of patients/total
[14] = Waldenström's Macroglobulinemia patients
[15] = Waldenström's Macroglobulinemia patients, number of patients/total
[16] = 25° C./60% RH for up to 24 months
[17] = 40° C./75% RH for up to 6 months

C=CC(=O)N1CCC([C@@H]2CCNc3c(C(N)=O)c(-c4ccc(Oc5ccccc5)cc4)nn32)CC1 [Compound 1, (S)-7-(1-acryloylpiperidin-4-yl)-2-(4-phenoxyphenyl)-4,5,6,7-tetra-hydropyrazolo[1,5-a]pyrimidine-3-carboxamide]
patients who discontinued ([1]; 6 disease progression, 2 adverse events related to underlying malignancy): 8 | exacerbation or new event of atrial fibrillation/flutter (AF) ([1]; 6 patients with baseline history of AF): no exacerbation or new event of AF | complete responses (CRs) ([1]; 39 patients enrolled): 3 | partial responses (PRs) ([1]; 39 patients enrolled): 25 | very good partial response (VGPR) ([1]; 39 patients enrolled): 1 | objective responses ([1]; 39 patients enrolled, cutoff Oct. 19, 2015): 29 | Best Response CR [1, 6]: (0%) | Best Response PD [1, 6]: (100%) | Best Response PR [1, 6]: (0%) | Best Response SD [1, 6]: (0%) | ORR (CR + PR) [1, 6]: (0%) | Best Response CR [1, 7]: 0/1 | Best Response PD [1, 7]: 1/1 | Best Response PR [1, 7]: 0/1 | Best Response SD [1, 7]: 0/1 | ORR (CR + PR) [1, 7]: 0/1 | Best Response PD [1, 8]: (0%) | Best Response SD [1, 8]: (7%) | ORR (CR + PR) [1, 8]: (93%) | Best Response CR ([1]; Chronic Lymphocytic Leukemia patients, cutoff Oct. 19, 2015): (0%) | Best Response PR ([1]; Chronic Lymphocytic Leukemia patients, includes five patients with lymphocytosis at latest assessment): (93%) | Best Response PD ([1]; Chronic Lymphocytic Leukemia patients, number of patients): 0 | Best Response SD [1, 9]: 1/14 | ORR (CR + PR) [1, 9]: 13/14 | Best Response CR ([1]; Chronic Lymphocytic Leukemia patients, number of patients/total, cutoff Oct. 19, 2015): 0/14 | Best Response PR ([1]; Chronic Lymphocytic Leukemia patients, number of patients/total, includes five patients with lymphocytosis at latest assessment): 13/14^1 | Best Response CR ([1]; DLBCL patients): (25%) | Best Response PD ([1]; DLBCL patients): (75%) | Best Response PR ([1]; DLBCL patients): (0%) | Best Response SD ([1]; DLBCL patients): (0%) | ORR (CR + PR) ([1]; DLBCL patients): (25%) | Best Response CR [1, 10]: 1/4 | Best Response PD [1, 10]: 3/4 | Best Response PR [1, 10]: 0/4 | Best Response SD [1, 10]: 0/4 | ORR (CR + PR) [1, 10]: 1/4 | Best Response CR ([1]; Hairy Cell Leukemia patients): (0%) | Best Response PD ([1]; Hairy Cell Leukemia patients): (0%) | Best Response PR ([1]; Hairy Cell Leukemia patients): (100%) | Best Response SD ([1]; Hairy Cell Leukemia patients): (0%) | ORR (CR + PR) ([1]; Hairy Cell Leukemia patients): (100%) | Best Response CR [1, 11]: 0/1 | Best Response PD [1, 11]: 0/1 | Best Response PR [1, 11]: 1/1 | Best Response SD [1, 11]: 0/1 | ORR (CR + PR) [1, 11]: 1/1 | Best Response CR ([1]; Indolent NHL patients): (0%) | Best Response PD ([1]; Indolent NHL patients): (0%) | Best Response PR ([1]; Indolent NHL patients): (0%) | Best Response SD ([1]; Indolent NHL patients): (100%) | ORR (CR + PR) ([1]; Indolent NHL patients): (0%) | Best Response CR [1, 12]: 0/2 | Best Response PD [1, 12]: 0/2 | Best Response PR [1, 12]: 0/2 | Best Response SD [1, 12]: 2/2 | ORR (CR + PR) [1, 12]: 0/2 | Best Response CR ([1]; Mantle Cell Lymphoma patients): (20%) | Best Response PD ([1]; Mantle Cell Lymphoma patients): (10%) | Best Response PR ([1]; Mantle Cell Lymphoma patients): (60%) | Best Response SD ([1]; Mantle Cell Lymphoma patients): (10%) | ORR (CR + PR) ([1]; Mantle Cell Lymphoma patients): (80%) | Best Response CR [1, 13]: 2/10 | Best Response PD [1, 13]: 1/10 | Best Response PR [1, 13]: 6/10 | Best Response SD [1, 13]: 1/10 | ORR (CR + PR) [1, 13]: 8/10 | Best Response CR [1, 14]: (0%) | Best Response PD [1, 14]: (14%) | Best Response SD [1, 14]: (0%) | ORR (CR + PR) [1, 14]: (86%) | Best Response PR ([1]; Waldenström's Macroglobulinemia patients, includes one patient with VGPR): (86%) | Best Response CR [1, 15]: 0/7 | Best Response PD [1, 15]: 1/7 | Best Response SD [1, 15]: 0/7 | ORR (CR + PR) [1, 15]: 6/7 | Best Response PR ([1]; Waldenström's Macroglobulinemia patients, number of patients/total, includes one patient with VGPR): 6/7^2 | ≥Grade 3 AEs assessed as possibly drug-related ([1]; all self-limited neutropenia): 4 | patients who died during study ([1]; disease progression or its complications): 3 | drug-related serious adverse events (SAEs) ([1]; human, in vivo): no drug-related serious adverse events | number of ≥Grade 3 AEs ([1]; human, in vivo): 19 | major hemorrhage ([1]; not considered drug-related): one case | patients remaining on study treatment, free of progression ([1]; of the 39 patients): 31 | overall tolerance and severe toxicities compared with ibrutinib ([2]; rat single and repeat dose toxicity studies up to 28 days): safer than ibrutinib | overall tolerance and severe toxicities compared with ibrutinib ([3]; dog single and repeat dose toxicity studies up to 28 days): safer than ibrutinib | major CYP isoform responsible for the metabolism [4]: CYP3A

C=CC(=O)N1CCC([C@@H]2CCNc3c(C(N)=O)c(-c4ccc(Oc5ccccc5)cc4)nn32)CC1 [Crystalline Form A, (S)-7-(1-acryloylpiperidin-4-yl)-2-(4-phenoxyphenyl)-4,5,6,7-tetra-hydropyrazolo[1,5-a]pyrimidine-3-carboxamide]
test article-related mortality ([2]; rat, in vivo): No test article-related mortality | changes in clinical chemistry or coagulation ([2]; rats): No toxicologically significant changes | crystal form change [5, 16]: no crystal form and optical purity changes; also recorded: no crystal form change | optical purity change [5, 16]: no crystal form and optical purity changes | chemical purity (% area) T0 ([5]; 25° C./60% RH): 99.2% | chemical purity (% area) T12 ([5]; 25° C./60% RH, T12): 99.2% | crystal form change [5, 17]: no crystal form and optical purity changes; also recorded: no crystal form change | optical purity change [5, 17]: no crystal form and optical purity changes | chemical purity (% area) T0 ([5]; 40° C./75% RH): 99.1% | chemical purity (% area) T6 ([5]; 40° C./75% RH, T6): 99.4% | crystal form change (XRPD) ([5]; 80° C. for two days): no crystal form change | increase of mass (DVS) (Hygroscopic test (DVS)): about 0.8% | impact on animal body weight (TMD-8 DLBCL xenografts; all treatment groups): no significant impact on animal body weight | anti-tumor effects (TMD-8 DLBCL xenografts; different dose levels BID p.o., 39 days): dose-dependent anti-tumor effects | anti-tumor activity at lowest dose tested (TMD-8 DLBCL xenografts; lowest dose tested, BID p.o.): strong anti-tumor activity | test article-related mortality ([3]; dog, in vivo): No test article-related mortality | changes in clinical chemistry or coagulation ([3]; dogs): No toxicologically significant changes
